Measured values reported in patent publication US12421205B2, “GLP-1 receptor agonist” (HYUNDAI PHARM CO., LTD., priority 2019, dated 2025).

Assays:
[1] = target: T1, hERG (Homo sapiens, UniProt Q12809); experiment: hERG inhibition test (Predictor hERG Fluorescence Polarization assay kit); format: binding; conditions: probe kit Tracer (fluorescent hERG ligand), hERG % inhibition at 10 uM, relative to E-4031 and solvent control
T1 construct: purchased Invitrogen PV5365
Method in brief: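 Competitive fluorescence-polarization binding of fluorescent tracer to hERG membrane preparation, 2.5 h at room temperature, mP read at 531/579 nm. % inhibition at 10 uM test compound, scaled between solvent control (0%) and E-4031 (100%).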

[2] = target: T2, human GLP-1 receptor (Homo sapiens, UniProt P43220); experiment: cAMP activity test (cAMP dynamic HTRF kit) in CHO-K1/GLP-1 receptor-expressing cells; format: cell-based; conditions: cAMP activity, CHO-K1/GLP-1 receptor-expressing cells; read-out: EC50
T2 construct: host or cells: CHO-K1
T2 sequence (P43220 24-463): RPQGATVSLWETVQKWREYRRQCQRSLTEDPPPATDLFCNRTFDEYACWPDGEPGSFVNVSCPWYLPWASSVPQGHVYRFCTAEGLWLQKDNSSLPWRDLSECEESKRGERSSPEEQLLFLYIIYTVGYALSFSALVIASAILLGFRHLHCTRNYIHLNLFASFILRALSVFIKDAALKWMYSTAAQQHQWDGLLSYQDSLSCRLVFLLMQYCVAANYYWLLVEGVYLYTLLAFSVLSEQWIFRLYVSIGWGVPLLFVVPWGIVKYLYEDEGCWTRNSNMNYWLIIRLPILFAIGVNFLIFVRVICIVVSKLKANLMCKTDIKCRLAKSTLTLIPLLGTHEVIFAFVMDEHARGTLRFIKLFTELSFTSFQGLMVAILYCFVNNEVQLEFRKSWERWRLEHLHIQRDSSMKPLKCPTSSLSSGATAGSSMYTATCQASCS
Method in brief: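 Cells in HBSS with 0.1% BSA, 0.5 mM IBMX and 5 mM HEPES, then lysed; cAMP-d2 and anti-cAMP cryptate added for 3 h. HTRF read-out, where FRET signal is inversely proportional to intracellular cAMP.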

T1 sequence (Q12809 whole entry): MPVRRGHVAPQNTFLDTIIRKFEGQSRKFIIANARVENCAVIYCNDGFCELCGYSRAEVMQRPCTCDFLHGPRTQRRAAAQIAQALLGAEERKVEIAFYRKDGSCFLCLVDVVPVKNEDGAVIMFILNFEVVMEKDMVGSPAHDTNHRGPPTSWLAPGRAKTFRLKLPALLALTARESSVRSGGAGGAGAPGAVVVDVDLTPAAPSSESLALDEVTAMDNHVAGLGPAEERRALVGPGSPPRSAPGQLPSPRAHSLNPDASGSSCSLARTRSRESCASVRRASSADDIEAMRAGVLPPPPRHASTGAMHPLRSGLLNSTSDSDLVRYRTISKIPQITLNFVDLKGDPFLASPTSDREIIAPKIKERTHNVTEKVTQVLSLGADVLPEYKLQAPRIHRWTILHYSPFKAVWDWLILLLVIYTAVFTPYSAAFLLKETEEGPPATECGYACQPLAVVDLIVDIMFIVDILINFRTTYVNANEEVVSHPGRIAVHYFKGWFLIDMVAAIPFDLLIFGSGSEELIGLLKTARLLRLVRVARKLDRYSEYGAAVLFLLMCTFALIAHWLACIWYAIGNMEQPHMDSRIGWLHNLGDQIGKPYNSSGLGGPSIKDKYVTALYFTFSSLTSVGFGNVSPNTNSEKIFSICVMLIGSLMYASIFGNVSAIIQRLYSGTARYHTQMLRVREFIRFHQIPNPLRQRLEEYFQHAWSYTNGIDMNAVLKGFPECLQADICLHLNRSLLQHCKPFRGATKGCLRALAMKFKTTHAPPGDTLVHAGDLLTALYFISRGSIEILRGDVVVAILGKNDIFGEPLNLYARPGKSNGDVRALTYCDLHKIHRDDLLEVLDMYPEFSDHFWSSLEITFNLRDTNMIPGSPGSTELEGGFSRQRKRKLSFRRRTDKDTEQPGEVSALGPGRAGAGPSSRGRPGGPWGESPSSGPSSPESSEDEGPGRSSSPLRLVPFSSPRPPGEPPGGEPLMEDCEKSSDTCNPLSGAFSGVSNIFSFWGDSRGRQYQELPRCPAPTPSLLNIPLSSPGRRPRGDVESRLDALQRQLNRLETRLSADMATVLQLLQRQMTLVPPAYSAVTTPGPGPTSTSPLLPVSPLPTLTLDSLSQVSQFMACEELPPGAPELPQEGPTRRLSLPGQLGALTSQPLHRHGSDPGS

Structure (SMILES) | EC50 [2] | inhibition at 2.5 h, 10 µM [1]
O=C(O)c1ccc2nc(Cc3ccc(-c4cccc(OCc5ccc(Cl)cc5F)n4)cc3F)n(Cc3cccs3)c2c1 [Example 49, 2-(4-(6-(4-chloro-2-fluorobenzyloxy)pyridin-2-yl)-2-fluorobenzyl)-1-(thiophen-2-ylmethyl)-1H-benzo[d]imidazole-6-carboxylic acid] | 14 nM | 12.5%
N#Cc1ccc(COc2cccc(-c3ccc(Cc4nc5ccc(C(=O)O)cc5n4Cc4ccco4)c(F)c3)c2)c(F)c1 [Example 28, 2-((3′-(4-cyano-2-fluorobenzyloxy)-3-fluorobiphenyl-4-yl)methyl)-1-(furan-2-ylmethyl)-1H-benzo[d]imidazole-6-carboxylic acid] | 130 nM | 0.52%
O=C(O)c1ccc2nc(Cc3ccc(-c4cccc(OCc5ccc(Cl)cc5F)n4)c(F)c3)n(Cc3cnco3)c2c1 [Example 35, 2-(4-(6-(4-chloro-2-fluorobenzyloxy)pyridin-2-yl)-3-fluorobenzyl)-1-(oxazol-5-ylmethyl)-1H-benzo[d]imidazole-6-carboxylic acid] | 9 nM | -3.82%
O=C(O)c1ccc2nc(Cc3ccc(-c4cccc(OCc5ccc(Cl)cc5F)c4)cc3)n(CC3CCCO3)c2c1 (centres unmarked) [Example 24, 2-((3′-(4-chloro-2-fluorobenzyloxy)biphenyl-4-yl)methyl)-1-((tetrahydrofuran-2-yl)methyl)-1H-benzo[d]imidazole-6-carboxylic acid] | 130 nM | -7.68%
COCCn1c(Cc2c(F)cc(-c3cccc(OCc4ccc(Cl)cc4F)c3)cc2F)nc2ccc(C(=O)O)cc21 [Example 48, 2-((3′-(4-chloro-2-fluorobenzyloxy)-3,5-difluorobiphenyl-4-yl)methyl)-1-(2-methoxyethyl)-1H-benzo[d]imidazole-6-carboxylic acid] | 42 nM | 14.3%
N#Cc1ccc(COc2cccc(-c3ccc(Cc4nc5ccc(C(=O)O)cc5n4Cc4ccco4)cc3)c2)c(F)c1 [Example 27, 2-((3′-(4-cyano-2-fluorobenzyloxy)biphenyl-4-yl)methyl)-1-(furan-2-ylmethyl)-1H-benzo[d]imidazole-6-carboxylic acid] | 270 nM | -4.76%
COCCn1c(Cc2ccc(-c3cccc(OCc4ccc(Cl)cc4F)n3)cc2F)nc2ccc(C(=O)O)cc21 [Example 3, 2-(4-(6-(4-chloro-2-fluorobenzyloxy)pyridin-2-yl)-2-fluorobenzyl)-1-(2-methoxyethyl)-1H-benzo[d]imidazole-6-carboxylic acid] | 32 nM | 8.39%
N#Cc1ccc(COc2cccc(-c3ccc(Cc4nc5ccc(C(=O)O)cc5n4CC4CCCO4)c(F)c3)n2)c(F)c1 (centres unmarked) [Example 15, 2-(4-(6-(4-cyano-2-fluorobenzyloxy)pyridin-2-yl)-2-fluorobenzyl)-1-((tetrahydrofuran-2-yl)methyl)-1H-benzo[d]imidazole-6-carboxylic acid] | 16 nM | 1.67%
O=C(O)c1ccc2nc(Cc3ccc(-c4cccc(OCc5ccc(Cl)cc5F)n4)cc3)n(Cc3cccnc3)c2c1 [Example 1, 2-(4-(6-(4-chloro-2-fluorobenzyloxy)pyridin-2-yl)benzyl)-1-(pyridin-3-ylmethyl)-1H-benzo[d]imidazole-6-carboxylic acid] | 10 nM | 1.26%
O=C(O)c1ccc2nc(Cc3cc(F)c(-c4cccc(OCc5ccc(Cl)cc5F)n4)cc3F)n(CC3CCCO3)c2c1 (centres unmarked) [Example 70, 2-(4-(6-(4-chloro-2-fluorobenzyloxy)pyridin-2-yl)-2,5-difluorobenzyl)-1-((tetrahydrofuran-2-yl)methyl)-1H-benzo[d]imidazole-6-carboxylic acid] | < 3.2 nM | -6.14%
COCCn1c(Cc2ccc(-c3cccc(OCc4ccc(Cl)cc4F)n3)cc2[N+](=O)[O-])nc2ccc(C(=O)O)cc21 [Example 5, 2-(4-(6-(4-chloro-2-fluorobenzyloxy)pyridin-2-yl)-2-nitrobenzyl)-1-(2-methoxyethyl)-1H-benzo[d]imidazole-6-carboxylic acid] | 620 nM | 2.74%
N#Cc1ccc(COc2cccc(-c3cc(F)c(Cc4nc5ccc(C(=O)O)cc5n4C[C@@H]4CCCO4)cc3F)n2)c(F)c1 [Example 120, (S)-2-(4-(6-((4-cyano-2-fluorobenzyl)oxy)pyridin-2-yl)-2,5-difluorobenzyl)-1-((tetrahydrofuran-2-yl)methyl)-1H-benzo[d]imidazole-6-carboxylic acid] | < 3.2 nM | -3.82%
N#Cc1ccc(COc2cccc(-c3ccc(Cc4nc5ccc(C(=O)O)cc5n4CCF)c(F)c3)n2)c(F)c1 [Example 44, 2-(4-(6-(4-cyano-2-fluorobenzyloxy)pyridin-2-yl)-2-fluorobenzyl)-1-(2-fluoroethyl)-1H-benzo[d]imidazole-6-carboxylic acid] | 230 nM | 1.77%
O=C(O)c1ccc2nc(Cc3ccc(-c4ccc(F)c(OCc5ccc(Cl)cc5F)c4)cc3F)n(CC3CCCO3)c2c1 (centres unmarked) [Example 95, 2-((3′-(4-chloro-2-fluorobenzyloxy)-3,4′-difluorobiphenyl-4-yl)methyl)-1-((tetrahydrofuran-2-yl)methyl)-1H-benzo[d]imidazole-6-carboxylic acid] | 100 nM | -38.2%

Continued, in another order:

EC50 [2] | Structure (SMILES) | inhibition at 2.5 h, 10 µM [1]
9.5 nM | COc1ccc(COc2cccc(-c3ccc(Cc4nc5ccc(C(=O)O)cc5n4C[C@@H]4CCO4)cc3F)n2)cc1 [Example 122, (S)-2-(3-fluoro-4-(6-((4-methoxybenzyl)oxy)pyridin-2-yl)benzyl)-1-(oxetan-2-ylmethyl)-1H-benzo[d]imidazole-6-carboxylic acid] | -5.75%
15 nM | O=C(O)c1ccc2nc(Cc3ccc(-c4cccc(OCc5ccc(C(F)(F)F)cc5)n4)c(F)c3)n(C[C@@H]3CCO3)c2c1 [Example 121, (S)-2-(3-fluoro-4-(6-((4-(trifluoromethyl)benzyl)oxy)pyridin-2-yl)benzyl)-1-(oxetan-2-ylmethyl)-1H-benzo[d]imidazole-6-carboxylic acid] | -10.7%
6.5 nM | O=C(O)c1ccc2nc(Cc3ccc(-c4cccc(OCc5ccc(Cl)cc5F)n4)c(F)c3)n(CC3CCCO3)c2c1 (centres unmarked) [Example 11, 2-(4-(6-(4-chloro-2-fluorobenzyloxy)pyridin-2-yl)-3-fluorobenzyl)-1-((tetrahydrofuran-2-yl)methyl)-1H-benzo[d]imidazole-6-carboxylic acid] | -1.31%
29 nM | Cc1cc(-c2cccc(OCc3ccc(C#N)cc3F)n2)ccc1Cc1nc2ccc(C(=O)O)cc2n1CC1CCCO1 (centres unmarked) [Example 68, 2-(4-(6-(4-cyano-2-fluorobenzyloxy)pyridin-2-yl)-2-methylbenzyl)-1-((tetrahydrofuran-2-yl)methyl)-1H-benzo[d]imidazole-6-carboxylic acid] | -11.4%
< 3.2 nM | O=C(O)c1ccc2nc(Cc3cc(F)c(-c4cccc(OCc5ccc(Cl)cc5F)n4)cc3F)n(C[C@@H]3CCO3)c2c1 [Example 86, (S)-2-(4-(6-(4-chloro-2-fluorobenzyloxy)pyridin-2-yl)-2,5-difluorobenzyl)-1-(oxetan-2-ylmethyl)-1H-benzo[d]imidazole-6-carboxylic acid] | 8.93%
260 nM | O=C(O)c1ccc2nc(Cc3ccc(-c4cccc(OCc5ccncc5)n4)c(F)c3)n(C[C@@H]3CCO3)c2c1 [Example 128, (S)-2-(3-fluoro-4-(6-(pyridin-4-ylmethoxy)pyridin-2-yl)benzyl)-1-(oxetan-2-ylmethyl)-1H-benzo[d]imidazole-6-carboxylic acid] | -6.1%
11 nM | N#Cc1ccc(COc2cccc(-c3ccc(Cc4nc5ccc(C(=O)O)cc5n4C[C@@H]4CCCO4)cc3F)n2)c(F)c1 [Example 67, (S)-2-(4-(6-(4-cyano-2-fluorobenzyloxy)pyridin-2-yl)-3-fluorobenzyl)-1-((tetrahydrofuran-2-yl)methyl)-1H-benzo[d]imidazole-6-carboxylic acid] | 0.85%
8.7 nM | O=C(O)c1ccc2nc(Cc3ccc(-c4cccc(OCc5ccc(Cl)cc5F)n4)c(F)c3F)n(CC3CCCO3)c2c1 (centres unmarked) [Example 61, 2-(4-(6-(4-chloro-2-fluorobenzyloxy)pyridin-2-yl)-2,3-difluorobenzyl)-1-((tetrahydrofuran-2-yl)methyl)-1H-benzo[d]imidazole-6-carboxylic acid] | -6.72%
23 nM | O=C(O)c1ccc2nc(Cc3ccc(-c4cccc(OCc5ccc(Cl)cc5)n4)cc3F)n(CC3CCCO3)c2c1 (centres unmarked) [Example 75, 2-(4-(6-(4-chlorobenzyloxy)pyridin-2-yl)-2-fluorobenzyl)-1-((tetrahydrofuran-2-yl)methyl)-1H-benzo[d]imidazole-6-carboxylic acid] | -7.98%
61 nM | O=C(O)c1ccc2nc(Cc3ccc(-c4cccc(OCc5ccc(F)c(F)c5)n4)c(F)c3)n(CC3CCCO3)c2c1 (centres unmarked) [Example 98, 2-(4-(6-(3,4-difluorobenzyloxy)pyridin-2-yl)-3-fluorobenzyl)-1-((tetrahydrofuran-2-yl)methyl)-1H-benzo[d]imidazole-6-carboxylic acid] | -2.76%
< 3.2 nM | N#Cc1ccc(COc2cccc(-c3ccc(Cc4nc5ccc(C(=O)O)cc5n4C[C@@H]4CCO4)c(F)c3F)n2)c(F)c1 [Example 113, (S)-2-(4-(6-((4-cyano-2-fluorobenzyl)oxy)pyridin-2-yl)-2,3-difluorobenzyl)-1-(oxetan-2-ylmethyl)-1H-benzo[d]imidazole-6-carboxylic acid] | -4.94%
